Source: patent US7238701B2, “Substituted tetrahydrobenzothienopyrimidinamine compounds useful for treating hyper-proliferative disorders” (Bayer Pharmaceuticals Corporation, priority 2003, dated 2007)

Legend:
[1] = test system: BT474 (human breast carcinoma); test: In vitro tumor cell proliferation assay (Cell Titer-Glo luminescent cell viability), BT474 cells; assay type: cell-based; conditions: BT-474, 72 hours drug exposure, 10% Fetal Bovine Serum, ATP luminescence readout, read-out: IC50 (50% inhibition of cell proliferation)
From the text: (§1) In vitro Tumor Cell Proliferation Assay
(§2) The tumor cell proliferation assay used to test the compounds of the present invention involves a readout called Cell Titer-Glow® Luminescent Cell Viability Assay developed by Promega (Cunningham, B A “A Growing Issue: Cell Proliferation Assays, Modern kits ease quantification of cell growth” The Scientist 2001, 15(13), 26, and Crouch, S P et al., “The use of ATP bioluminescence as a measure of cell proliferation and cytotoxicity” Journal of Immunological Methods 1993, 160, 81–88), that measures inhibition of cell proliferation. Generation of a luminescent signal corresponds to the amount of ATP present, which is directly proportional to the number of metabolically active (proliferating) cells.
(§3) A431cells (human epidermoid carcinoma, ATCC # HTB-20) and BT474 (human breast carcinoma, ATCC # CRL-1555) were plated at a density of 2.5×10^3 cells/well in 96 well black-clear bottom tissue culture plates in RPMI media with 10% Fetal Bovine Serum and incubated at 37° C. Twenty-four hours later, test compounds are added at a final concentration range from as high 100 μM to as low 64 pM depend on the activities of the tested compounds in serial dilutions at a final DMSO concentration of 0.1%. Cells were incubated for 72 hours at 37° C. in complete growth media after addition of the test compound. After 72 hours of drug exposure, the plates were equilibrated to room temperature for approximately 30 min. Then, using a Promega Cell Titer Glo Luminescent® assay kit, lysis buffer containing 100 microliters of the enzyme luciferase and its substrate, luciferin mixture, was added to each well. The plates were mixed for 2 min on orbital shaker to ensure cell lysis and incubated for 10 min at room temperature to stabilize luminescence signal. The samples were read on VICTOR 2 using Luminescence protocol, and analyzed with Analyze5 software to generate IC50 values.

[2] = test system: A431cells (human epidermoid carcinoma); test: In vitro tumor cell proliferation assay (Cell Titer-Glo luminescent cell viability), A431 cells; assay type: cell-based; conditions: A-431, 72 h, 72 hours drug exposure, 10% Fetal Bovine Serum, ATP luminescence readout, read-out: IC50 (50% inhibition of cell proliferation)
From the text: as §1, §2, §3

SMILES	IC50 [1] [µM]	IC50 [2] [µM]
CN1CCN(CCC2CCc3c(sc4ncnc(Nc5cccc(Br)c5)c34)C2)CC1 (centres unmarked) [Example 80, N-(3-bromophenyl)-7-[2-(4-methyl-1-piperazinyl)ethyl]-5,6,7,8-tetrahydro[1]benzothieno[2,3-d]pyrimidin-4-amine]	< 5	< 5
CN1CCN(C(=O)CC2CCc3c(sc4ncnc(Nc5cccc(Br)c5)c34)C2)CC1 (centres unmarked) [Example 68, N-(3-bromophenyl)-7-[2-(4-methyl-1-piperazinyl)-2-oxoethyl]-5,6,7,8-tetrahydro[1]benzothieno[2,3-d]pyrimidin-4-amine]	< 50	< 50
COCCNCCC1CCc2c(sc3ncnc(Nc4ccc(OCc5cccc(F)c5)c(Cl)c4)c23)C1 (centres unmarked) [Example 142, N-{3-chloro-4-[(3-fluorobenzyl)oxy]phenyl}-7-{2-[(2-methoxyethyl)amino]ethyl}-5,6,7,8-tetrahydro[1]benzothieno[2,3-d]pyrimidin-4-amine]	< 5	< 5
CCOC(=O)C1CCc2c(sc3ncnc(Nc4ccc(C)c(O)c4)c23)C1 (centres unmarked) [Example 39, Ethyl 4-[(3-hydroxy-4-methylphenyl)amino]-5,6,7,8-tetrahydro[1]benzothieno[2,3-d]pyrimidine-7-carboxylate]	< 5	< 50
COCCN(C)CC1CCc2c(sc3ncnc(Nc4cccc(Br)c4)c23)C1 (centres unmarked) [Example 36, N-(3-bromophenyl)-7-{[(2-methoxyethyl)(methyl)amino]methyl}-5,6,7,8-tetrahydro[1]benzothieno[2,3-d]pyrimidin-4-amine]	< 5	
CN(C)[C@@H]1CCN(CC2CCc3c(sc4ncnc(Nc5cccc(Br)c5)c34)C2)C1 (stereo partly drawn) [Example 66, N-(3-bromophenyl)-7-{[(3R)-3-(dimethylamino)-1-pyrrolidinyl]methyl}-5,6,7,8-tetrahydro[1]benzothieno[2,3-d]pyrimidin-4-amine]	< 5	< 5
COc1ccc(NCCC2CCc3c(sc4ncnc(Nc5cccc(Br)c5)c34)C2)cc1 (centres unmarked) [Example 89, N-(3-bromophenyl)-7-{2-[(4-methoxyphenyl)amino]ethyl}-5,6,7,8-tetrahydro[1]benzothieno[2,3-d]pyrimidin-4-amine]	< 50	< 50
CN(C)[C@@H]1CCN(C(=O)CC2CCc3c(sc4ncnc(Nc5cccc(Br)c5)c34)C2)C1 (stereo partly drawn) [Example 92, N-(3-bromophenyl)-7-{2-[(3R)-3-(dimethylamino)-1-pyrrolidinyl]-2-oxoethyl}-5,6,7,8-tetrahydro[1]benzothieno[2,3-d]pyrimidin-4-amine]	< 5	< 5
CS(=O)(=O)CCNCC1CCc2c(sc3ncnc(Nc4ccc(F)c(Cl)c4)c23)C1 (centres unmarked) [Example 55, N-(3-chloro-4-fluorophenyl)-7-({[2-(methylsulfonyl)ethyl]amino}methyl)-5,6,7,8-tetrahydro[1]benzothieno[2,3-d]pyrimidin-4-amine]	< 50	< 5
O=C(O)C1CCc2c(sc3ncnc(Nc4ccc(Br)cc4F)c23)C1 (centres unmarked) [Example 2, 4-[(4-bromo-2-fluorophenyl)amino]-5,6,7,8-tetrahydro[1]benzothieno[2,3-d]pyrimidine-7-carboxylic acid]	< 5	< 50
OCCC1CCc2c(sc3ncnc(Nc4ccc(OCc5ccc(F)cc5)c(Cl)c4)c23)C1 (centres unmarked) [Example 155, 2-[4-({3-chloro-4-[(4-fluorobenzyl)oxy]phenyl}amino)-5,6,7,8-tetrahydro[1]benzothieno[2,3-d]pyrimidin-7-yl]ethanol]	< 5	
CN1CCN(C(=O)C2CCc3c(sc4ncnc(Nc5ccc(OCc6ccccc6)cc5)c34)C2)CC1 (centres unmarked) [Example 43, N-[4-(benzyloxy)phenyl]-7-[(4-methyl-1-piperazinyl)carbonyl]-5,6,7,8-tetrahydro[1]benzothieno[2,3-d]pyrimidin-4-amine]	< 5	
CN1CCN(CC2CCc3c(sc4ncnc(Nc5cccc(Br)c5)c34)C2)CC1 (centres unmarked) [Example 26, N-(3-bromophenyl)-7-[(4-methyl-1-piperazinyl)methyl]-5,6,7,8-tetrahydro[1]benzothieno[2,3-d]pyrimidin-4-amine]		< 5
Cc1ccc(Nc2ncnc3sc4c(c23)CCC(C(=O)O)C4)cc1O (centres unmarked) [Example 46, 4-[(3-hydroxy-4-methylphenyl)amino]-5,6,7,8tetrahydro[1]benzothieno[2,3-d]pyrimidine-7-carboxylic acid]		< 50

The next lines start with the values.

IC50 [1] [µM]	IC50 [2] [µM]	SMILES
< 5	< 5	Clc1cc(Nc2ncnc3sc4c(c23)CCC(CCN2CCCC2)C4)ccc1OCc1ccccn1 (centres unmarked) [Example 190, N-[3-chloro-4-(pyridin-2-ylmethoxy)phenyl]-7-(2-pyrrolidin-1-ylethyl)-5,6,7,8-tetrahydro[1]benzothieno[2,3-d]pyrimidin-4-amine]
< 5	< 50	Cc1ccc(Oc2ccc(Nc3ncnc4sc5c(c34)CCC(CCNCCO)C5)cc2C)cn1 (centres unmarked) [Example 217, 2-({2-[4-({3-methyl-4-[(6-methylpyridin-3-yl)oxy]phenyl}amino)-5,6,7,8-tetrahydro[1]benzothieno[2,3-d]pyrimidin-7-yl]ethyl}amino)ethanol]
< 5	< 5	Clc1cc(Nc2ncnc3sc4c(c23)CCC(CCN2CCN(Cc3ccncc3)CC2)C4)ccc1OCc1ccccn1 (centres unmarked) [Example 196, N-[3-chloro-4-(pyridin-2-ylmethoxy)phenyl]-7-{2-[4-(pyridin-4-ylmethyl)piperazin-1-yl]ethyl}-5,6,7,8-tetrahydro[1]benzothieno[2,3-d]pyrimidin-4-amine]
< 5	< 50	Cc1ccc(Oc2ccc(Nc3ncnc4sc5c(c34)CCC(CCO)C5)cc2C)cn1 (centres unmarked) [Example 214, 2-{4-[3-Methyl-4-(6-methyl-pyridin-3-yloxy)-phenylamino]-5,6,7,8-tetrahydro-benzo[4,5]thieno[2,3-d]pyrimidin-7-yl}-ethanol]
< 5	< 50	Cc1ccc(Oc2ccc(Nc3ncnc4sc5c(c34)CCC(CCN3CCC(O)C3)C5)cc2C)cn1 (centres unmarked) [Example 233, 1-{2-[4-({3-methyl-4-[(6-methylpyridin-3-yl)oxy]phenyl}amino)-5,6,7,8-tetrahydro[1]benzothieno[2,3-d]pyrimidin-7-yl]ethyl}pyrrolidin-3-ol]
< 5	< 50	Cc1ccc(Oc2ccc(Nc3ncnc4sc5c(c34)CCC(CCNCCS(C)(=O)=O)C5)cc2C)cn1 (centres unmarked) [Example 219, N-{3-methyl-4-[(6-methylpyridin-3-yl)oxy]phenyl}-7-(2-{[2-(methylsulfonyl)ethyl]amino}ethyl)-5,6,7,8-tetrahydro[1]benzothieno[2,3-d]pyrimidin-4-amine]
< 5	< 5	c1ccc(Cn2ncc3cc(Nc4ncnc5sc6c(c45)CCC(CCNCCN4CCCC4)C6)ccc32)cc1 (centres unmarked) [Example 211, N-(1-benzyl-1H-indazol-5-yl)-7-{2-[(2-pyrrolidin-1-ylethyl)amino]ethyl}-5,6,7,8-tetrahydro[1]benzothieno[2,3-d]pyrimidin-4-amine]
< 5		CS(=O)(=O)OCCC1CCc2c(sc3ncnc(Nc4ccc(OCc5ccc(F)cc5)c(Cl)c4)c23)C1 (centres unmarked) [Example 156, 2-[4-({3-chloro-4-[(4-fluorobenzyl)oxy]phenyl}amino)-5,6,7,8-tetrahydro[1]benzothieno[2,3-d]pyrimidin-7-yl]ethyl methanesulfonate]
